Measurements as given in ChEMBL document CHEMBL1142399, “Water-soluble pleuromutilin derivative with excellent in vitro and in vivo antibacterial activity against gram-positive pathogens” (J Med Chem, 2008).
≈ marks a conversion by molar mass, not a printed value.

Key:
Staphylococcus aureus [1] = assay: Antibacterial activity against methicillin-resistant Staphylococcus aureus KT0116 in mouse dosed iv 1 hr after infection; type: functional
Enterococcus faecalis = assay: microbe, parasite or virus in culture; details: ATCC 29212
Streptococcus pneumoniae [2] = assay: microbe, parasite or virus in culture
Haemophilus influenzae = assay: Antibacterial activity against Haemophilus influenzae TH13 by broth microdilution method; type: functional
Staphylococcus aureus [3] = assay: microbe, parasite or virus in culture; details: KMP9
Streptococcus pyogenes = assay: Antibacterial activity against Streptococcus pyogenes ATCC 12344 by broth microdilution method; type: functional
Streptococcus pneumoniae [4] = assay: Antibacterial activity against penicillin-resistant Streptococcus pneumoniae KT2524 in mouse dosed iv 1 hr after infection; type: functional
Streptococcus pneumoniae [5] = assay: Antibacterial activity against penicillin-susceptible Streptococcus pneumoniae ATCC 49619 in mouse dosed iv 1 hr after infection; type: functional; details: ATCC 49619, iv
Staphylococcus aureus [6] = assay: microbe, parasite or virus in culture; details: Smith
Streptococcus pneumoniae [7] = assay: microbe, parasite or virus in culture; details: ATCC 49619
Staphylococcus aureus [8] = assay: microbe, parasite or virus in culture
Staphylococcus aureus [9] = assay: microbe, parasite or virus in culture; remark: listed apart in the source
Moraxella catarrhalis = assay: Antibacterial activity against Moraxella catarrhalis K1209 by broth microdilution method; type: functional
[10] = test system: Staphylococcus epidermidis; assay: Antibacterial activity against Staphylococcus epidermidis ATCC 12228 by broth microdilution method; type: functional
Enterococcus faecium [11] = assay: microbe, parasite or virus in culture; details: ATCC 19434
Enterococcus faecium [12] = assay: Antibacterial activity against vancomycin-resistant Enterococcus faecium KU1778 clinical isolate by broth microdilution method; type: functional
Staphylococcus aureus [13] = assay: Antibacterial activity against methicillin-susceptible Staphylococcus aureus Smith in mouse dosed iv 1 hr after infection; type: functional
[14] = test system: Peptoniphilus asaccharolyticus; assay: Antibacterial activity against Peptostreptococcus asaccharolyticus GAI 5534 by broth microdilution method; type: functional
Finegoldia magna = assay: Antibacterial activity against Peptostreptococcus magnus GAI 5528 by broth microdilution method; type: functional
[15] = test system: Peptostreptococcus anaerobius; assay: Antibacterial activity against Peptostreptococcus anaerobius GAI 5506 by broth microdilution method; type: functional
[16] = test system: Mycoplasmoides pneumoniae; assay: Antibacterial activity against Mycoplasma pneumoniae FH Liu by broth microdilution method; type: functional
[17] = test system: Streptococcus intermedius; assay: Antibacterial activity against Streptococcus intermedius GAI 7416 by broth microdilution method; type: functional
[18] = test system: Mycoplasmoides pneumoniae; assay: Antibacterial activity against Mycoplasma pneumoniae Mac by broth microdilution method; type: functional
Atopobium parvulum = assay: Antibacterial activity against Atopobium parvulum GAI 5542 by broth microdilution method; type: functional; details: Lancefieldella parvula
[19] = test system: Staphylococcus saccharolyticus; assay: Antibacterial activity against Staphylococcus saccharolyticus GAI 5520 by broth microdilution method; type: functional
Clostridium perfringens = assay: Antibacterial activity against Clostridium perfringens GAI 5526 by broth microdilution method; type: functional
[20] = test system: Propionibacterium granulosum; assay: Antibacterial activity against Propionibacterium granulosum GAI 7414 by broth microdilution method; type: functional; details: Cutibacterium granulosum
Cutibacterium acnes = assay: Antibacterial activity against Propionibacterium acnes GAI 5568 by broth microdilution method; type: functional
Staphylococcus aureus [21] = assay: Antibacterial activity against methicillin-susceptible Staphylococcus aureus Smith in mouse dosed twice iv 1 hr and 4 hrs after infection; type: functional
Streptococcus pneumoniae [22] = assay: Antibacterial activity against penicillin-resistant Streptococcus pneumoniae KT2524 in mouse dosed twice iv 1 hr and 4 hrs after infection; type: functional
Staphylococcus aureus [23] = assay: Antibacterial activity against methicillin-susceptible Staphylococcus aureus Smith in po dosed mouse twice daily; type: functional
Staphylococcus aureus [24] = assay: Antibacterial activity against methicillin-resistant Staphylococcus aureus KT0116 in mouse dosed twice iv 1 hr and 4 hrs after infection; type: functional
Streptococcus pneumoniae [25] = assay: Antibacterial activity against penicillin-susceptible Streptococcus pneumoniae ATCC 49619 in mouse dosed twice iv 1 hr and 4 hrs after infection; type: functional; details: ATCC 49619, iv
Streptococcus pneumoniae [26] = assay: Antibacterial activity against penicillin-susceptible Streptococcus pneumoniae ATCC 6303 in mouse pulmonary infection model assessed as survival at 6.25 mg/kg, ip twice daily for 3 days; type: functional; details: route intraperitoneal

| SMILES | ED50 (Staphylococcus aureus [1]) [mg/kg] | MIC (Streptococcus pneumoniae [2]) [µg/mL] | MIC (Haemophilus influenzae) [µg/mL] | MIC (Staphylococcus aureus [3]) [µg/mL] | MIC (Streptococcus pyogenes) [µg/mL] | ED50 (Streptococcus pneumoniae [4]) [mg/kg] | ED50 (Streptococcus pneumoniae [5]) [mg/kg] | MIC (Staphylococcus aureus [6]) [µg/mL] | MIC (Streptococcus pneumoniae [7]) [µg/mL] | MIC (Staphylococcus aureus [8]) [µg/mL] | MIC (Staphylococcus aureus [9]) [µg/mL] | MIC (Moraxella catarrhalis) [µg/mL] | MIC [10] [µg/mL] | MIC (Enterococcus faecium [11]) [µg/mL] | MIC (Enterococcus faecium [12]) [µg/mL] | ED50 (Staphylococcus aureus [13]) [mg/kg] | MIC [14] [µg/mL] | MIC (Finegoldia magna) [µg/mL] | MIC [15] [µg/mL] | MIC [17] [µg/mL] | further results |
| --- | --- | --- | --- | --- | --- | --- | --- | --- | --- | --- | --- | --- | --- | --- | --- | --- | --- | --- | --- | --- | --- |
| CC[C@H]1OC(=O)[C@H](C)[C@@H](O[C@H]2C[C@@](C)(OC)[C@@H](O)[C@H](C)O2)[C@H](C)[C@@H](O[C@@H]2O[C@H](C)C[C@H](N(C)C)[C@H]2O)[C@](C)(O)C[C@@H](C)C(=O)[C@H](C)[C@@H](O)[C@]1(C)O [ERYTHROMYCIN] | > 100 | > 128 | 2 (≈ 2.73 µM) | 32 (≈ 43.6 µM) | 0.008 (≈ 0.0109 µM) | > 100 | 1.48 | 0.125 (≈ 0.17 µM) | 0.016 (≈ 0.0218 µM) | > 128 | 0.063 (≈ 0.0858 µM) | 0.032 (≈ 0.0436 µM) | 0.063 (≈ 0.0858 µM) | 1 (≈ 1.36 µM) | > 128 | 2.55 | – | – | – | – | MIC (Enterococcus faecalis): 2 µg/mL (≈ 2.73 µM) |
| C[C@H]1COc2c(N3CCN(C)CC3)c(F)cc3c(=O)c(C(=O)O)cn1c23.C[C@H]1COc2c(N3CCN(C)CC3)c(F)cc3c(=O)c(C(=O)O)cn1c23.O [LEVOFLOXACIN] | > 100 | – | 0.032 | > 128 | 0.5 | > 100 | 24.7 | 0.125 | – | > 128 | 0.125 | 0.063 | 0.25 | 4 | 64 | 0.78 | 2 | 0.125 | 0.125 | 0.5 | MIC (Enterococcus faecalis): 0.5 µg/mL; MIC [16]: 0.125 µg/mL; MIC [18]: 0.063 µg/mL; MIC (Atopobium parvulum): 0.25 µg/mL; MIC [19]: 0.125 µg/mL; MIC (Clostridium perfringens): 0.25 µg/mL; MIC [20]: 0.25 µg/mL; MIC (Cutibacterium acnes): 0.25 µg/mL |
| CC1(C)S[C@@H]2[C@H](NC(=O)[C@H](N)c3ccccc3)C(=O)N2[C@H]1C(=O)O [AMPICILLIN] | – | – | – | – | – | – | – | – | – | – | – | – | – | – | – | – | 0.25 (≈ 0.715 µM) | 0.25 (≈ 0.715 µM) | 0.125 (≈ 0.358 µM) | 0.125 (≈ 0.358 µM) | MIC (Atopobium parvulum): 0.125 µg/mL (≈ 0.358 µM); MIC [19]: 0.008 µg/mL (≈ 0.0229 µM); MIC (Clostridium perfringens): 0.063 µg/mL (≈ 0.18 µM); MIC [20]: 0.063 µg/mL (≈ 0.18 µM); MIC (Cutibacterium acnes): 0.125 µg/mL (≈ 0.358 µM) |
| CC[C@]1(C)C[C@@H](OC(=O)CSc2nnc(N)[nH]2)[C@]2(C)[C@H](C)CC[C@]3(CCC(=O)[C@H]32)[C@@H](C)[C@@H]1O [AZAMULIN] | – | 0.5 (≈ 1.04 µM) | 0.5 (≈ 1.04 µM) | 2 (≈ 4.18 µM) | 0.25 (≈ 0.522 µM) | – | – | 0.5 (≈ 1.04 µM) | 0.5 (≈ 1.04 µM) | 1 (≈ 2.09 µM) | 0.25 (≈ 0.522 µM) | 0.032 (≈ 0.0669 µM) | 0.25 (≈ 0.522 µM) | 0.5 (≈ 1.04 µM) | 0.25 (≈ 0.522 µM) | – | – | – | – | – | ED50 (Staphylococcus aureus [21]): 6.88 mg/kg; MIC (Enterococcus faecalis): 128 µg/mL (≈ 267 µM); ED50 (Streptococcus pneumoniae [22]): 17.7 mg/kg; ED50 (Staphylococcus aureus [23]): 13.3 mg/kg; ED50 (Staphylococcus aureus [24]): 5.2 mg/kg; ED50 (Streptococcus pneumoniae [25]): 12.9 mg/kg |
| CN[C@H](CC(C)C)C(=O)N[C@H]1C(=O)N[C@@H](CC(N)=O)C(=O)N[C@H]2C(=O)N[C@H]3C(=O)N[C@H](C(=O)N[C@H](C(=O)O)c4cc(O)cc(O)c4-c4cc3ccc4O)[C@H](O)c3ccc(c(Cl)c3)Oc3cc2cc(c3O[C@@H]2O[C@H](CO)[C@@H](O)[C@H](O)[C@H]2O[C@H]2C[C@](C)(N)[C@H](O)[C@H](C)O2)Oc2ccc(cc2Cl)[C@H]1O [VANCOMYCIN] | 1.01 | 0.5 (≈ 0.345 µM) | > 128 | – | – | 2.37 | 1.06 | – | 0.25 (≈ 0.173 µM) | – | – | 64 (≈ 44.2 µM) | – | – | > 128 | 0.88 | 0.125 (≈ 0.0863 µM) | 0.25 (≈ 0.173 µM) | 0.25 (≈ 0.173 µM) | 1 (≈ 0.69 µM) | Activity (Streptococcus pneumoniae [26]): 50%; MIC [16]: > 128 µg/mL; MIC [18]: > 128 µg/mL; MIC (Atopobium parvulum): 2 µg/mL (≈ 1.38 µM); MIC [19]: 2 µg/mL (≈ 1.38 µM); MIC (Clostridium perfringens): 0.5 µg/mL (≈ 0.345 µM); MIC [20]: 0.5 µg/mL (≈ 0.345 µM); MIC (Cutibacterium acnes): 0.5 µg/mL (≈ 0.345 µM) |
| CC[C@H]1OC(=O)[C@H](C)[C@@H](O[C@H]2C[C@@](C)(OC)[C@@H](O)[C@H](C)O2)[C@H](C)[C@@H](O[C@@H]2O[C@H](C)C[C@H](N(C)C)[C@H]2O)[C@](C)(OC)C[C@@H](C)C(=O)[C@H](C)[C@@H](O)[C@]1(C)O [CLARITHROMYCIN] | – | – | – | – | – | – | – | – | – | – | – | – | – | – | – | – | > 128 | 2 (≈ 2.67 µM) | < 0.004 | < 0.004 | MIC [16]: 0.016 µg/mL (≈ 0.0214 µM); MIC [18]: 0.016 µg/mL (≈ 0.0214 µM); MIC (Atopobium parvulum): < 0.004 µg/mL; MIC [19]: 0.063 µg/mL (≈ 0.0842 µM); MIC (Clostridium perfringens): 1 µg/mL (≈ 1.34 µM); MIC [20]: < 0.004 µg/mL; MIC (Cutibacterium acnes): < 0.004 µg/mL |
| CN(C)c1ccc(O)c2c1C[C@H]1C[C@H]3[C@H](N(C)C)C(O)=C(C(N)=O)C(=O)[C@@]3(O)C(O)=C1C2=O [MINOCYCLINE] | 50 | 8 (≈ 17.5 µM) | 0.5 (≈ 1.09 µM) | 4 (≈ 8.74 µM) | 0.063 (≈ 0.138 µM) | 50 | 0.968 | 0.063 (≈ 0.138 µM) | 0.032 (≈ 0.0699 µM) | 16 (≈ 35 µM) | 0.063 (≈ 0.138 µM) | 0.25 (≈ 0.546 µM) | 0.125 (≈ 0.273 µM) | 0.063 (≈ 0.138 µM) | 0.063 (≈ 0.138 µM) | 0.515 | 16 (≈ 35 µM) | 0.125 (≈ 0.273 µM) | 0.032 (≈ 0.0699 µM) | 0.25 (≈ 0.546 µM) | MIC [16]: 0.25 µg/mL (≈ 0.546 µM); MIC [18]: 0.25 µg/mL (≈ 0.546 µM); MIC (Atopobium parvulum): 0.25 µg/mL (≈ 0.546 µM); MIC [19]: 0.125 µg/mL (≈ 0.273 µM); MIC (Clostridium perfringens): 0.063 µg/mL (≈ 0.138 µM); MIC [20]: 0.25 µg/mL (≈ 0.546 µM); MIC (Cutibacterium acnes): 0.125 µg/mL (≈ 0.273 µM) |
| CO/N=C(\C(=O)N[C@@H]1C(=O)N2C(C(=O)O)=C(CSc3nc(=O)c(O)nn3C)CS[C@H]12)c1csc(N)n1 [CEFTRIAXONE] | > 100 | 0.5 (≈ 0.902 µM) | 0.008 (≈ 0.0144 µM) | > 128 | 0.016 (≈ 0.0289 µM) | 27.5 | 0.22 | 2 (≈ 3.61 µM) | 0.063 (≈ 0.114 µM) | > 128 | 2 (≈ 3.61 µM) | 0.25 (≈ 0.451 µM) | 2 (≈ 3.61 µM) | 4 (≈ 7.21 µM) | > 128 | 3.72 | – | – | – | – | MIC (Enterococcus faecalis): 4 µg/mL (≈ 7.21 µM) |
